Laboratory results reported in ChEMBL document CHEMBL1148944, “Iridoid glucosides and p-coumaroyl iridoids from Viburnum luzonicum and their cytotoxicity” (J Nat Prod, 2004).
pIC50: −log10 of the molar value.

Test: Cytotoxicity against human HeLaS3 cells by WST1 assay
Type: functional, cell-based
Conditions: HeLa S3

Structure (SMILES) | pIC50
COC(=O)C1=CO[C@@H](O[C@@H]2O[C@H](CO)[C@@H](O)[C@H](O)[C@H]2O)[C@@H]2[C@@H](COC(=O)/C=C/c3ccc(O)cc3)CC[C@H]12 [LUZONOSIDE C] | 4.00
CC(C)CC(=O)O[C@@H]1OC=C(CO)[C@H]2C[C@H](OC(=O)/C=C\c3ccc(O)cc3)[C@](O)(CO)[C@@H]12 [LUZONOID B] | 5.51
CCC(C)CC(=O)O[C@@H]1OC=C(CO)[C@H]2C[C@H](OC(=O)/C=C/c3ccc(O)cc3)[C@](O)(CO)[C@@H]12 (stereo not given in full) [1-O-DEISOVAEROYL-1-O-3-METHYLVALEROYL-LUZONOID A] | 5.13
O=c1[nH]cc(F)c(=O)[nH]1 [FLUOROURACIL] | 5.27
CC(C)CC(=O)O[C@@H]1OC=C(CO)[C@H]2C[C@H](OC(=O)/C=C/c3ccc(O)cc3)[C@](O)(CO)[C@@H]12 [LUZONOID A] | 5.54
CC(C)CC(=O)O[C@@H]1OC=C(CO)[C@H]2C[C@H](O)[C@](O)(COC(=O)/C=C/c3ccc(O)cc3)[C@@H]12 [LUZONOID C] | 5.45
COC(=O)C1=CO[C@@H](O[C@@H]2O[C@H](CO)[C@@H](O)[C@H](O)[C@H]2O)[C@@H]2[C@@H](COC(=O)/C=C\c3ccc(O)cc3)CC[C@H]12 [LUZONOSIDE D] | 4.00
CC(C)CC(=O)O[C@@H]1OC=C(CO)[C@H]2C[C@H](O)[C@](O)(COC(=O)/C=C\c3ccc(O)cc3)[C@@H]12 [LUZONOID D] | 5.34
CC(C)CC(=O)O[C@@H]1OC=C(CO[C@@H]2O[C@H](CO)[C@@H](O)[C@H](O)[C@H]2O)[C@H]2C[C@H](OC(=O)/C=C/c3ccc(O)cc3)[C@](O)(CO)[C@@H]12 [LUZONOSIDE A] | 5.47
CC(C)CC(=O)O[C@@H]1OC=C(CO[C@@H]2O[C@H](CO)[C@@H](O)[C@H](O)[C@H]2O)[C@H]2C[C@H](OC(=O)/C=C\c3ccc(O)cc3)[C@](O)(CO)[C@@H]12 [LUZONOSIDE B] | 5.33
